Assay [1] concerns the target T1, N6-adenosine-methyltransferase catalytic subunit (Homo sapiens, UniProt Q86U44). In words: Inhibition of METTL3-mediated m6A methylation in human […] cells assessed as reduction in mRNA level measured after 24 hrs by LC-MS/MS analysis. It is filed as cell-based, MOLM-13.
The target of assay [2] is T1, N6-adenosine-methyltransferase catalytic subunit. As to the kind of experiment: Inhibition of METTL3 (unknown origin) using 3' biotinylated RNA (UCUGGACUAAA) and 3H-SAM as a substrate preincubated for 5 mins followed by substrate addition incubated for 30 mins by scintillation counting method.

SMILES strings stand for the structures. Bounds are passed on as bounds.

T1 sequence (Q86U44 whole entry): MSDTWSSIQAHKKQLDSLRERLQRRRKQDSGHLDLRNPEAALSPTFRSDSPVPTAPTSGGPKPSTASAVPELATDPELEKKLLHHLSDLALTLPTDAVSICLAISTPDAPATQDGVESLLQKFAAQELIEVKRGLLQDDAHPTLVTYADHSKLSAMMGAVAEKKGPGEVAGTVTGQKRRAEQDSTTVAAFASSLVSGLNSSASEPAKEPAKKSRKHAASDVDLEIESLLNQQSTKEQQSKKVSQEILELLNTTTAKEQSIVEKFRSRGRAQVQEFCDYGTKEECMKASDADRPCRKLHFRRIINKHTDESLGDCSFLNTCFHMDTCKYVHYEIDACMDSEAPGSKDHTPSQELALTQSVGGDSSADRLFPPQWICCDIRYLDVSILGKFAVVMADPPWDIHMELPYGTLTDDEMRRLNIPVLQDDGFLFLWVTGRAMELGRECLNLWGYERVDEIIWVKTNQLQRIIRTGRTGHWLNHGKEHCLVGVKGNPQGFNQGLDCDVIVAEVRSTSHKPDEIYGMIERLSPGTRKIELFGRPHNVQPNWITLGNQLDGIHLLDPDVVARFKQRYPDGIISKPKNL

On to `Cc1coc(-c2cn([C@@H]3O[C@H](COc4ccc5ccc(N6CCC6)nc5c4)[C@@H](O)[C@@H]3F)c3ncnc(N)c23)n1`, for which the IC50 in assay [1] was less than 1000 nM; in assay [2] it was less than 10 nM.
With `CNc1ccc2ccc(OC[C@H]3O[C@@H](n4cc(-c5ccc(C)o5)c5c(N)ncnc54)[C@@H](F)[C@@H]3O)cc2n1`, the values for the IC50 in assay [1] and in assay [2] were less than 1000 nM and less than 10 nM, respectively.
As to `Nc1ncnc2c1c(-n1cccn1)cn2[C@@H]1O[C@H](COc2ccc3ccc(N4CCC4)nc3c2)[C@@H](O)[C@@H]1F`, the IC50 in assay [1] is less than 1000 nM; in assay [2] it was less than 10 nM.
In the same order, the values of `CCNc1ccc2ccc(OC[C@H]3O[C@@H](n4cc(C5CCCC5)c5c(N)ncnc54)[C@H](O)[C@@H]3O)cc2n1` are less than 1000 nM and less than 10 nM.
In the same order, the values of `CNc1ccc2ccc(OC[C@H]3O[C@@H](n4cc(-c5ccn(C)n5)c5c(N)ncnc54)[C@H](O)[C@@H]3O)cc2n1` are less than 1000 nM and less than 10 nM.
For `Nc1ncnc2c1c([C@@H]1CCCO1)cn2[C@@H]1O[C@H](COc2ccc3ccc(N4CCC4)nc3c2)[C@@H](O)[C@@H]1F`, the values for the IC50 in assay [1] and in assay [2] were less than 1000 nM and less than 10 nM, respectively.

A word on the IC50: it is the midpoint of a concentration-inhibition curve.

For the origin of these results see ChEMBL document CHEMBL4825715, “Novel METTL3 Modulators for Treating Acute Myeloid Leukemia (AML)” (ACS Med Chem Lett, 2021).
